Assay results published in US20180243421A1, “IMMUNOSTIMULATING AGENT” (AJINOMOTO CO., INC., priority 2015, published 2018).

Columns and labels:
[1] = system: anti-OVA-specific IgG1 subclass antibody; experiment: Adjuvant activity: anti-OVA-specific IgG1 subclass antibody in serum after secondary immunization (Examples 1, 5, 7, 8; ELISA absorbance); assay type: in vivo, BALB/c mice; details: Example 7
Description: (§1) Two weeks from the secondary immunization, the whole blood was extracted under anesthesia, and the obtained serum sample was measured for anti-OVA-specific IgG1 subclass antibody.
A method for measurement of the anti-OVA-specific IgG1 subclass antibody in Example 1, and the following Examples 5, 7 and 8 is as follows.
Measurement Method of anti-OVA-specific IgG1 Subclass Antibody
(§2) To a 96 well plate was added 5 μg/ml OVA at 100 μl/well, and the mixture was incubated at 4° C. overnight. After incubation, the mixture was washed three times with 200 μl of PBS-T (PBS+0.05%(v/v) Tween 20) per well, and blocked with 100 μl of 5% FCS/PBS solution per well at room temperature for 1 to 2 hr. Thereafter, the mixture was washed three times with PBS-T (200 μl/well), a diluted serum sample (100 μl/well) or the same amount of 5% FCS/PBS solution as a control was added, and the mixture was incubated at 37° C. for 1 hr. Thereafter, the mixture was washed five times with PBS-T (200 μl/well), a diluted biotinylated anti-mouse IgG1 antibody (100 μl/well) was added, and the mixture was incubated at 37° C. for 45 min. Thereafter, the mixture was washed five times with PBS-T (200 μl/well), a diluted anti-biotin-HRP antibody was added (100 μl/well), and the mixture was incubated at 37° C. for another 30 min. Thereafter, the mixture was washed five times with PBS-T (200 μl/well), TMB substrate solution was added (100 μl/well), and the mixture was incubated at room temperature for 10 to 15 min. Thereafter, a reaction quenching liquid (2N sulfuric acid solution) was added (50 μl/well) to discontinue a color developing reaction, and the absorbance (OD Value=450 nm) was measured by a microplate reader.

[2] = system: anti-OVA-specific IgE antibody; details: mouse, in vivo
Description: The serum sample obtained in Example 1 was measured for an anti-OVA-specific IgE antibody. The measurement method of the anti-OVA-specific IgE antibody in Example 3 and Examples 6, 9 is as follows.
Measurement Method of anti-OVA-specific IgE Antibody
DS mouse IgE ELISA (OVA) kit manufactured by DS Pharma Biomedical Co., Ltd. was used. The protocol is briefly shown below.
The serum sample and a standard reagent for drawing an analytical curve are diluted with a buffer and, after stirring, left standing at room temperature for 10 min. The sample and the standard solution are added to a plate bound with an IgE capture antibody in advance and, after stirring, the mixture is left standing at room temperature for 60 min. The mixture is washed three times with wash, HRP-labeled OVA is added, and the mixture is left standing at room temperature for 30 min. The mixture is washed three times with wash, a substrate solution is added, and the mixture is left standing in dark at room temperature for 30 min. A reaction quenching liquid is added, the mixture is stirred, and the absorbance (OD Value=450 nm) is immediately measured.
This test was performed in the same manner as in Example 3 except that N^2-hexadecanoyl-L-arginine (SZ61), N-hexadecanoylagmatine (SZ62), N^2-hexadecanoyl-L-arginine methyl ester hydrochloride (SZ63), N^2-octadecanoyl-L-glutamine tert-butyl ester (SZ64), and N^2-octadecanoyl-L-glutamine (SZ65) were used.
This test was performed in the same manner as in Example 6 except that N-hexadecanoylagmatine (SZ62), N^2-octadecanoyl-L-glutamine tert-butyl ester (SZ64), N-docosanoyl-L-leucine methyl ester (SZ70), and N-docosanoyl-L-phenylalanine methyl ester (SZ71) were used and a positive control adjuvant Addavax™ (InvivoGen) administration group was formed.
(§3) The allergy inducing activity test was performed in the same manner as in Example 3 except that Addavax™, N-(2-octadecyleicosanoyl)-L-leucine methyl ester (SZ86), N-hexadecanoyl-L-leucinamide (SZ90), N^2-hexadecanoyl-N^1,N^1-diethyl-L-leucinamide (SZ92), N^2-hexadecanoyl-L-arginine hexyl ester hydrochloride (SZ99) and N^2-docosanoyl-N^1,N^1-diethyl-L-glutamic acid 1-amide (SZ106) were used.
as §3, with “N-hexadecanoyl-L-leucine” for “N^2-hexadecanoyl-L-arginine”, “(SZ97),” for “hydrochloride (SZ99) and”, “(SZ106) and N-docosanoylagmatine hydrochloride (SZ108)” for “(SZ106)”
8-Week-old female BALB/c mice were divided into groups (N=6), and each group was primarily immunized by dorsal-subcutaneous administration of (1) ovalbumin (OVA) (5 μg) dissolved in saline as an antigen (OVA single administration group), (2) OVA (10 μg) and aluminum hydroxide salt dissolved in saline (Alum administration group), (3) OVA 10 μg and Addavax™ (mixed with saline at 1:1) dissolved in saline (Addavax™ administration group), (4) OVA 10 μg and CpG 5 μg dissolved in saline (CpG administration group), (5) OVA 10 μg and MPL 5 μg dissolved in saline (MPL administration group), (6) OVA (5 μg) and SZ62 (0.256 μmol) dissolved or dispersed in 5% αCD-added saline (SZ62 administration group), (7) OVA (5 μg), SZ62 (0.256 μmol) and CpG 5 μg dissolved or dispersed in 5% αCD-added saline (SZ62+CpG administration group), (8) OVA 10 μg, Addavax™ (mixed with saline at 1:1) and CpG 5 μg dissolved in saline (Addavax™+CpG administration group), (9) OVA (5 μg), SZ62 (0.256 μmol) and MPL 5 μg dissolved or dispersed in 5% αCD-added saline (SZ62+MPL administration group), (10) OVA (10 μg), aluminum hydroxide salt (Alum) and MPL 5 μg dissolved in saline (Alum+MPL administration group), each per mouse. One week later, the secondary immunization was carried out by dorsal-subcutaneous administration of solutions or dispersions similar to those of the above-mentioned (1) to (10) again.

[3] = system: IFN-γ; experiment: Th1 response: IFN-γ production from lymph node cells of immunized mice restimulated with OVA; assay type: in vivo, BALB/c mice; details: Example 10; s.c. OVA 10 μg + 0.256 μmol in 5% αCD saline (Addavax 1:1); groin lymph node ten days later; 0.1-100 μg OVA, 40 hr, ELISA
Description: (§4) Ten days later, groin lymph node was collected from all mice of the above-mentioned (1) to (4), lymph node cells were isolated and cultured in 10% FBS-containing RPMI1640 medium. Thereto was added 0.1 μg, 1 μg, 10 μg, 100 μg of OVA, respectively, 40 hr later, cell supernatant was recovered, and IFN-γ and IL-4 in the supernatant were measured by ELISA.

[4] = system: IL-4; experiment: Th2 response: IL-4 production from lymph node cells of immunized mice restimulated with OVA; assay type: in vivo, BALB/c mice; details: Example 10; s.c. OVA 10 μg + 0.256 μmol in 5% αCD saline (Addavax 1:1); groin lymph node ten days later; 0.1-100 μg OVA, 40 hr, ELISA
Description: as §4

[5] = system: anti-OVA-specific IgG2a subclass antibody; experiment: Adjuvant activity: anti-OVA-specific IgG2a subclass antibody in serum after secondary immunization; assay type: in vivo, BALB/c mice; details: Example 21; s.c.; SZ62 0.256 μmol in 5% αCD saline, CpG 5 μg, MPL 5 μg, Addavax 1:1, Alum; two weeks from secondary immunization
Description: as §1
Measurement Method of anti-OVA-specific IgG2a Subclass Antibody
as §2, with “IgG2a” for “IgG1”, “10-15” for “10 to 15”
Measurement Method of Concentration of anti-OVA-specific IgG1 Subclass Antibody and anti-OVA-specific IgG2a Subclass Antibody
To a 96 well plate was added 5 μg/ml OVA at 100 μl/well, and the mixture was incubated at 4° C. overnight. After incubation, the mixture was washed three times with 200 μl of PBS-T (PBS+0.05% (v/v) Tween 20) per well, and blocked with 100 μl of 5% FCS/PBS solution per well at room temperature for 1 to for 2 hr. […] When an anti-OVA-specific IgG2a subclass antibody was measured, the standard of an anti-OVA-specific IgG2a subclass antibody was added at 50 ng/ml, 25 ng/ml, 12,5 ng/ml, 6.25 ng/ml, 3.125 ng/ml, 1.56 ng/ml, 0.781 ng/ml, 0.391 ng/ml, 0.195 ng/ml, 0.098 ng/ml, 0.049 ng/ml, 0 ng/ml, per 1 well. […] Thereafter, a reaction quenching liquid (2N sulfuric acid solution) was added (50 μl/well) to discontinue a color developing reaction, and the absorbance (OD Value=450 nm) was measured by a microplate reader. A standard curve was drawn from the measured OD values, and the concentration was calculated.

[6] = system: anti-OVA-specific IgG1 subclass antibody; experiment: Adjuvant activity: anti-OVA-specific IgG1 subclass antibody in serum after secondary immunization (Examples 12, 19, 20, 21); assay type: in vivo, BALB/c mice; details: Example 21; s.c.; SZ62 0.256 μmol in 5% αCD saline, CpG 5 μg, MPL 5 μg, Addavax 1:1, Alum; two weeks from secondary immunization

Row | allergy inducing activity as compared to aluminum hydroxide gel adjuvant and Addavax [2] | Molecule | adjuvant activity (IgG1) compared with Alum [1] | anti-OVA-specific IgG1 subclass antibody production as compared to the OVA single administration group ([1]; same manner as Example 1, plus Addavax group) | IFN-γ production from lymph node cells [3] | IL-4 production from lymph node cells [4] | anti-OVA-specific IgG2a subclass antibody production as compared to the OVA single administration group [5] | anti-OVA-specific IgG1 subclass antibody production as compared to the OVA single administration group [6]
1 | lower allergy inducing activity | CCCCCCCCCCCCCCCCCCCCCC(=O)N[C@@H](CC(C)C)C(=O)OC [SZ70, N-docosanoyl-L-leucine methyl ester] | equivalent to or not less than that of Alum | significantly increased | increased in an OVA volume dependent manner | did not show an increase | – | –
2 | – | monophosphoryl lipid [MPL, reference compound] | – | – | – | – | tended to increase | significantly increased
